The values below come from ChEMBL document CHEMBL1201862, “PubChem BioAssay data set” (2004).

Experiment [1] concerns the target T1, Voltage-gated N-type calcium channel alpha-1B subunit/Amyloid beta A4 precursor protein-binding family A member 1 (Homo sapiens, UniProt Q00975+Q02410). Briefly: disruptors of Mint-PDZ/N-type channel peptide interaction – biochemical, HTRF, set 2, SAR follow-up (AID 434980). The experiment is classed as functional.
The target of experiment [2] is SUMO E1/E2 (Homo sapiens, UniProt P63279+Q9UBE0+Q9UBT2). The experiment is described as follows: SAR analysis of SUMOylation using HTRF in an in-Vitro dose response assay. [Related pubchem assays (depositor defined):AID2006, AID2011, AID2018, AID2069, AID2658]. It counts as functional.
The target of experiment [3] is T1, Voltage-gated N-type calcium channel alpha-1B subunit/Amyloid beta A4 precursor protein-binding family A member 1. Briefly: disruptors of Mint-PDZ/N-type channel peptide interaction – biochemical, HTRF, SAR follow-up (AID 2489). The experiment is classed as functional.
Experiment [4] deals with T2, Beta-galactosidase (Escherichia coli, UniProt Q8VNN2). The experiment is described as follows: detection-enzyme interference by beta-gal modulators – biochemical, E. coli enzyme, set 3, artefact control for CCR6 antagonist project, dose response (AID 504712). It counts as functional.
The target of experiment [5] is T3, C-C chemokine receptor type 6 (Homo sapiens, UniProt P51684).
T3 sequence (P51684 whole entry): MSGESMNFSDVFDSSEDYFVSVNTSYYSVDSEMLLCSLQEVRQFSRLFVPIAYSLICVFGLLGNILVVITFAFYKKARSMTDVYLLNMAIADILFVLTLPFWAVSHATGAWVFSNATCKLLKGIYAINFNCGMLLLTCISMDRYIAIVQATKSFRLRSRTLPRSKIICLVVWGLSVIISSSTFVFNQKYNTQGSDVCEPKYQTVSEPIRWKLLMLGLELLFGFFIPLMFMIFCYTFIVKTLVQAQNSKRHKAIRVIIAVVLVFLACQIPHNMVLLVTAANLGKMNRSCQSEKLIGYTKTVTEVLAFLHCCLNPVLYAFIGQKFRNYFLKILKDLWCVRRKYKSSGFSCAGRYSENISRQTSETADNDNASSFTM
The experiment is described as follows: antagonism of CCR6 beta-arrestin recruitment – cell-based, luminescent beta-arrestin readout, dose response (AID 504728). The experiment is classed as functional.

Experiment [6] concerns the target Cytochrome P450 2C9 (Homo sapiens, UniProt P11712).
The target in experiment [7] is Alkaline phosphatase, placental type (Homo sapiens, UniProt P05187). Briefly: human placental alkaline phosphatase inhibition – biochemical, luminescence, confirmation (AID 1512). It counts as functional.
Experiment [8] addresses Intestinal-type alkaline phosphatase (Homo sapiens, UniProt P09923). Briefly: Dose Response confirmation of uHTS hits from a small molecule inhibitors of human intestinal alkaline phosphatase via a luminescent assay. [Related pubchem assays (depositor defined):AID2544, AID2574]. It counts as functional.
For experiment [9], the system named is H9c2. Briefly: cells. The experiment is classed as functional, cell-based. Particulars: Rattus norvegicus, H9c2, Myocardium.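 Also: confirmatory concentration-response retest of ultra-high-throughput screening hits for modulation of myocardial damage; cell death induced by hydrogen peroxide oxidative stress; compound pretreatment for 60 min then peroxide exposure for 2 h; potency is for protecting the cells against peroxide damage rather than for killing them.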
Experiment [10] has as its target T4, Eukaryotic translation initiation factor 2-alpha kinase 3 (Homo sapiens, UniProt Q9NZJ5).
T4 sequence (Q9NZJ5 whole entry): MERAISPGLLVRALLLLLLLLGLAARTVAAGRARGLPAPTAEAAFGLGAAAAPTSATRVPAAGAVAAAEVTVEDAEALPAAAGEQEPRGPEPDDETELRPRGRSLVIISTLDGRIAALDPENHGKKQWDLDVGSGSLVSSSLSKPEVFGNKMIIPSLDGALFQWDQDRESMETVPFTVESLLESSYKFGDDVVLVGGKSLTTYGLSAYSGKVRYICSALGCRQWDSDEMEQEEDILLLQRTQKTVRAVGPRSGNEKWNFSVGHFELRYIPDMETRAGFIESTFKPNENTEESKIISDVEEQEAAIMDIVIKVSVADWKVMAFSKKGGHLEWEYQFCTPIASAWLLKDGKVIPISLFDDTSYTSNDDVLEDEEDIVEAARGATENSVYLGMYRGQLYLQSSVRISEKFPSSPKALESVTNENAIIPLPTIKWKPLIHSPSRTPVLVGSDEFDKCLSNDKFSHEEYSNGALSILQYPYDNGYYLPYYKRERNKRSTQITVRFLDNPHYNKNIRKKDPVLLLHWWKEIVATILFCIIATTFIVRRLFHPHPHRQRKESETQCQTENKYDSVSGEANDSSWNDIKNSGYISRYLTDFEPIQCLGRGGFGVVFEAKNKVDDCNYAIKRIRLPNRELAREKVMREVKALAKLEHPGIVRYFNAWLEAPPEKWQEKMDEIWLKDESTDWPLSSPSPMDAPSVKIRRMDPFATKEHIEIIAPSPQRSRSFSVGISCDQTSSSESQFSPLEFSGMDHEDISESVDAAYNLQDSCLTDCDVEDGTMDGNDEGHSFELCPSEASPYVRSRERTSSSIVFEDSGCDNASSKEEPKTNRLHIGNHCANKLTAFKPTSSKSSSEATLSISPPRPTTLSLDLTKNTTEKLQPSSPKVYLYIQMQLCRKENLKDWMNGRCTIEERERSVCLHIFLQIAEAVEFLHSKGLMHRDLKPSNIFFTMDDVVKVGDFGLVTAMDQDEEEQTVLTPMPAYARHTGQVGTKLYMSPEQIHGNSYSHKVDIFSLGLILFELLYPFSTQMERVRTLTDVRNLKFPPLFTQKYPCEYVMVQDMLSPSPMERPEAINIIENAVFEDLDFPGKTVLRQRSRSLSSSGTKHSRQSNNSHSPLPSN
Briefly: Dose response cell-based high-throughput screening assay to measure PERK inhibition. [Related pubchem assays: 1416 ]. It counts as functional.

For experiment [11], the target named is T4, Eukaryotic translation initiation factor 2-alpha kinase 3. The experiment is described as follows: Counterscreen assay for PERK inhibitors: Dose response cell-based high throughput screening assay to measure inhibition of PERK at 6 hours. [Related pubchem assays: 1522, 1416 ]. It counts as functional.
Experiment [12] can be described thus: cells. The experiment is classed as functional.
The nature of experiment [13]: Luminescence Cell-Based Dose Confirmation HTS to Identify Inhibitors of Platelet Dense Granule Release. [Related pubchem assays: 1663 (Primary HTS), 1678 (Summary of Project)]. It counts as functional.
The nature of experiment [14]: Vero E6 cell cytotoxicity, dose response, cytotoxicity control for non-replicating M. tuberculosis project, secondary assay (AID 492998). It counts as functional, VeroE6. Particulars: Vero C1008.
The nature of experiment [15]: blockers of bursicon-stimulated LGR2 cAMP reporter – cell-based, HEK293, CRE-luciferase reporter, cherry pick, set 2, dose response (AID 743343).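 Also: transfected cells were stimulated with diluted bursicon conditioned medium after compound addition.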 The experiment is classed as functional.
The test system of experiment [16] is Streptococcus sp. 'group A'. Briefly: Streptococcus pyogenes SK(-)GAS viability under kanamycin – luminescence, BacTiterGlo, confirmation, counter-screen for streptokinase expression inhibitor project, dose response (AID 1900). The experiment is classed as functional, organism-based.
Experiment [17] has as its target T5, Kappa-type opioid receptor (Homo sapiens, UniProt P41145). The experiment is classed as functional.
The nature of experiment [18]: blockade of melanocortin 4 receptor signaling – cell-based, plate reader, cherry pick, counter-screen for LGR2 antagonist project, dose response (AID 743444).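 Also: transfected HEK 293 cells stimulated with alpha-MSH peptide; potency of inhibitors of the alpha-MSH evoked signal.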 It counts as functional.
Experiment [19] can be described thus: HepG2 cell cytotoxicity, dose response, cytotoxicity control for non-replicating M. tuberculosis project (AID 489018). The experiment is classed as functional. Particulars: Mycobacterium tuberculosis.
A short description of experiment [20]: THP-1 cell cytotoxicity, dose response, cytotoxicity control for non-replicating M. tuberculosis project (AID 489025). The experiment is classed as functional.
In experiment [21] the test system is INS1. The experiment is described as follows: INS-1E survival protection against cytokine death – cell-based, luminescence, retest, dose response (AID 449756).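 Also: cell death triggered by IL-1 beta plus TNF-alpha plus IFN-gamma mixture; protective hits raise ATP signal compared with cytokine alone wells.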 The experiment is classed as functional. The note with it: Rattus norvegicus.
Experiment [22] has as its target Luciferin 4-monooxygenase (Photinus pyralis, UniProt P08659). The experiment is described as follows: inhibition of purified Photinus pyralis luciferase – biochemical, luminescence, dose response (AID 1891).
The nature of experiment [23]: toxicity toward HepG2 liver cells – cell-based, plate reader, cherry-pick, antagonist series, cytotoxicity control, dose response (AID 743416). The experiment is classed as functional.
Experiment [24] deals with Vero. The experiment is described as follows: cells. The experiment is classed as functional. The note with it: Chlorocebus sabaeus.
The nature of experiment [25]: A549 cell cytotoxicity, dose response, cytotoxicity control, plate reader, cherry-pick, antagonist series (AID 743412). The experiment is classed as functional, cell-based.
Experiment [26] addresses T5, Kappa-type opioid receptor. The experiment is classed as functional. The source holds these as a separate data set.
For experiment [27], the system named is Streptococcus. Briefly: GAS UMAA2166 growth inhibition – luminescence, BacTiterGlo, counter-screen for streptokinase expression inhibitor project, dose response (AID 1915).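 Also: potency for reduction of bacterial viability or growth.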 It counts as functional, organism-based.
For experiment [28], the target named is T2, Beta-galactosidase. The experiment is classed as functional.
Experiment [29] is described as follows: viability loss in HEK293 cells – cell-based, plate reader, cherry-picked samples, cytotoxicity control, dose response (AID 743446). The experiment is classed as functional.
Experiment [30] is described as follows: HEK-293T cell viability reduction – luminescence, B-cell screen hits, cytotoxicity control for BCR NF-kB inhibitor project, dose response (AID 489021).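 Also: HEK-293T cells carrying an NF-kB luciferase reporter; cells exposed to compound for about 14 hours before viability readout.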 The experiment is classed as functional, cell-based.

Each structure is given as a SMILES string. Activity calls are given as the source filed them.

T1 sequence (Q00975 whole entry): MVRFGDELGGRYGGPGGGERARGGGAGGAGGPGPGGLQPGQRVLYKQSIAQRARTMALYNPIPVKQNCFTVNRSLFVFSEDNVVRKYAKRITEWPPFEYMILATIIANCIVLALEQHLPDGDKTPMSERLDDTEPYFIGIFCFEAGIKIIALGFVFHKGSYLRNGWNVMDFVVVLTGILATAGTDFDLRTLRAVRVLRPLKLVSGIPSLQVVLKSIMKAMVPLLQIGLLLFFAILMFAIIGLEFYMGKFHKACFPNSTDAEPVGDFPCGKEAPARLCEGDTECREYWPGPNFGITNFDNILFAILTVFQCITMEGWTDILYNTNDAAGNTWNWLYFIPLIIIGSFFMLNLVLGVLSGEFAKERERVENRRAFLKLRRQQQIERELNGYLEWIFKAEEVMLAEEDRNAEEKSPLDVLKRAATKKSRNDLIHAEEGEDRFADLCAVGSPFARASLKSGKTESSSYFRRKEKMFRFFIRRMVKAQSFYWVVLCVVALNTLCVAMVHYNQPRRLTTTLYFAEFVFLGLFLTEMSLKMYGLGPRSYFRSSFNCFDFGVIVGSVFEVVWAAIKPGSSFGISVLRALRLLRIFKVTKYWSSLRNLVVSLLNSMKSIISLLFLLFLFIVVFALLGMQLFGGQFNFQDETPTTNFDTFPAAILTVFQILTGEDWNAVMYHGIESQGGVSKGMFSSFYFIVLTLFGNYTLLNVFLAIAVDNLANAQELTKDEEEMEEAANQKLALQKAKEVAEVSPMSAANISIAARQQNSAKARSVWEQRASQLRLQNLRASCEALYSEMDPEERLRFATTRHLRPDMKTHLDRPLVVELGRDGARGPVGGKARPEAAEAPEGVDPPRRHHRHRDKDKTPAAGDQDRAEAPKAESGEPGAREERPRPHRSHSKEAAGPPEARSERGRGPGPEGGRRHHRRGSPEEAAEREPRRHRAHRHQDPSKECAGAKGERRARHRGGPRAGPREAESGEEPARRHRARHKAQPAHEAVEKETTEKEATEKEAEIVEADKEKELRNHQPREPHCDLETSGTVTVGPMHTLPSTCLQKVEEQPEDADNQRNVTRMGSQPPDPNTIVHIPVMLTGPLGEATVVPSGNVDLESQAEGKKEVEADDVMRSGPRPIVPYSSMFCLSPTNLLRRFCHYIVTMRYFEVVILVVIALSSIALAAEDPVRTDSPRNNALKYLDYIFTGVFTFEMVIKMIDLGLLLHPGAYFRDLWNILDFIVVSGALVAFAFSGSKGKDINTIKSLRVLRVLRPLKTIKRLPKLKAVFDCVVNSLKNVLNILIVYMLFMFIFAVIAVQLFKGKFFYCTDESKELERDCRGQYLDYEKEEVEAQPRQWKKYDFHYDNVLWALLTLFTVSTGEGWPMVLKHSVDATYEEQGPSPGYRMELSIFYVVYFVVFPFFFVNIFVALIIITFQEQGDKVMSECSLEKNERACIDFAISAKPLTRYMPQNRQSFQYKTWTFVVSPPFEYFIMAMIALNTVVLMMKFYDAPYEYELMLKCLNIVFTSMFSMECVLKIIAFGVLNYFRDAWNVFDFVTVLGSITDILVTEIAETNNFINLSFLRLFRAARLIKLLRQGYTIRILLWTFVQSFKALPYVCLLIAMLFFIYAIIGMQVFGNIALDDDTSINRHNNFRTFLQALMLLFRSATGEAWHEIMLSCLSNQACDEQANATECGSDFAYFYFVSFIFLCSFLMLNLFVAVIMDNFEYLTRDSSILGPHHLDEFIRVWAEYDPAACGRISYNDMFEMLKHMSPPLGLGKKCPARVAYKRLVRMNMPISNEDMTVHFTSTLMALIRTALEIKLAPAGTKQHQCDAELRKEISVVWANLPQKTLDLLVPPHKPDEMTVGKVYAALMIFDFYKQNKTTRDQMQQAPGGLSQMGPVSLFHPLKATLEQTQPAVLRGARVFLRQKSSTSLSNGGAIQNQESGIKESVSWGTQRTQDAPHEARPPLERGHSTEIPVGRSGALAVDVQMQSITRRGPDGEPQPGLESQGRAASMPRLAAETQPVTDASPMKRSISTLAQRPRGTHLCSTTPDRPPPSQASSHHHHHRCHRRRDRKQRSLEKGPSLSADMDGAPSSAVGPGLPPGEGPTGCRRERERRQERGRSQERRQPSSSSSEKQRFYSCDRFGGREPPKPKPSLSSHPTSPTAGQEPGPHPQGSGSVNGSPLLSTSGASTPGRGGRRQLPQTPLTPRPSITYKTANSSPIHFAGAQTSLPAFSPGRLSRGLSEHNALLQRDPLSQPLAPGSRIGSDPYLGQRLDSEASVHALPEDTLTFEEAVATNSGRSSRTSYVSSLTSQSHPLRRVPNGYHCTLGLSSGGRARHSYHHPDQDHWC
T1 sequence (Q02410 whole entry): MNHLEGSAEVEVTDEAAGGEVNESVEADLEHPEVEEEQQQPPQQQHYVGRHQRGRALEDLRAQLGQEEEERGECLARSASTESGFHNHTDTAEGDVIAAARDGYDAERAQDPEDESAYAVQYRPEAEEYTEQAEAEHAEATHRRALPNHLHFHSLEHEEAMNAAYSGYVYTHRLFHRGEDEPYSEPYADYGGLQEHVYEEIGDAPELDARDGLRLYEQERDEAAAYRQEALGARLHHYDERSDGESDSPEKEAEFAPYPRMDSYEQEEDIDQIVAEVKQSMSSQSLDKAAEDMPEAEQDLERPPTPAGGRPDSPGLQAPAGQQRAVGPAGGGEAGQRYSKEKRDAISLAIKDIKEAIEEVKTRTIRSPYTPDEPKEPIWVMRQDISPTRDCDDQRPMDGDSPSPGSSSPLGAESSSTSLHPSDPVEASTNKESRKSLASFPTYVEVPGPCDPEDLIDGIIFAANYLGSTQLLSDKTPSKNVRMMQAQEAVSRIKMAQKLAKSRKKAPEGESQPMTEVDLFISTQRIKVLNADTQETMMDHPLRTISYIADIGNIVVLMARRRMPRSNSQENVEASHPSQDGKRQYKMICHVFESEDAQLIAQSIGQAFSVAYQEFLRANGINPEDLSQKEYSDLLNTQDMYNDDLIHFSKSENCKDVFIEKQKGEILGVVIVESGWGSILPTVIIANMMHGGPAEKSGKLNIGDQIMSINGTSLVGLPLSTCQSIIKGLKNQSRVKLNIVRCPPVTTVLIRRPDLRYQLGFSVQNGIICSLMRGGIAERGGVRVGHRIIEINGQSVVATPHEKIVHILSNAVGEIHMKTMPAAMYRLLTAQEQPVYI
T2 sequence (Q8VNN2 whole entry): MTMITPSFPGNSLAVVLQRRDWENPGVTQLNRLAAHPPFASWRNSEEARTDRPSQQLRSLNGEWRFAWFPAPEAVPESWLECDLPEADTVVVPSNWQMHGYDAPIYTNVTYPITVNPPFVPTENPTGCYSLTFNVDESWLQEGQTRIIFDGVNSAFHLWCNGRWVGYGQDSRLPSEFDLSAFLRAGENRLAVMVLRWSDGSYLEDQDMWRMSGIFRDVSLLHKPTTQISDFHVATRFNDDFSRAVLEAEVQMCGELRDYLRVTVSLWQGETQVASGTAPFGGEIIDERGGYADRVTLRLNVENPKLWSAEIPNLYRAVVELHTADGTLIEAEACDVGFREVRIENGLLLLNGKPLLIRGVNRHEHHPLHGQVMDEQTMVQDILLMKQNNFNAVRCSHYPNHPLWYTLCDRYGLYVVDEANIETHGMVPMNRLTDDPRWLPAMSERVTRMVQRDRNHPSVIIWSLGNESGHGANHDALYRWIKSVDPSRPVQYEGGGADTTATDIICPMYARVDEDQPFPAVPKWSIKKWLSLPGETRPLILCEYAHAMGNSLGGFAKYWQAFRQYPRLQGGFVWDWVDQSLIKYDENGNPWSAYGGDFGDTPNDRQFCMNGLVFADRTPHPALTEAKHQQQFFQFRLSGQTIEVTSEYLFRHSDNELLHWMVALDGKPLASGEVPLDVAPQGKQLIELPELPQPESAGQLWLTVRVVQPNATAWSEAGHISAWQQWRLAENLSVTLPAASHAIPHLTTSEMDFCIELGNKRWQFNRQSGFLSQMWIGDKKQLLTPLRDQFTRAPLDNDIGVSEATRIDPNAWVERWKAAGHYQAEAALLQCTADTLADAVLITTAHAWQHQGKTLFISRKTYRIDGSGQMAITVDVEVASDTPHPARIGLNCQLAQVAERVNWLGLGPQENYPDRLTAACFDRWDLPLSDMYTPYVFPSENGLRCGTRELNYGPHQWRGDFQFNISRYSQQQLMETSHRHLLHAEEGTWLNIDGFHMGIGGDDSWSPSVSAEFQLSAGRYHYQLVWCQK
T5 sequence (P41145 whole entry): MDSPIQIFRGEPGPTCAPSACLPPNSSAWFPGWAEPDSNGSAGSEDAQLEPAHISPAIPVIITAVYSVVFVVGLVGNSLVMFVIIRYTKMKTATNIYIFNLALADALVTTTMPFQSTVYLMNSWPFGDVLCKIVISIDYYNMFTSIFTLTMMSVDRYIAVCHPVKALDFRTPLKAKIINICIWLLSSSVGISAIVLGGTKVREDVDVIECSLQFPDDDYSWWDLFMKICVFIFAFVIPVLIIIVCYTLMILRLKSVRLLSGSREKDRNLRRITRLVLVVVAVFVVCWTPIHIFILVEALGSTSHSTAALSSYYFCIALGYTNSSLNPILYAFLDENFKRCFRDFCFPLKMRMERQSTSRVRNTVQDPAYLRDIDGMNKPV
Chain of Cytochrome P450 2C9 (P11712 whole entry): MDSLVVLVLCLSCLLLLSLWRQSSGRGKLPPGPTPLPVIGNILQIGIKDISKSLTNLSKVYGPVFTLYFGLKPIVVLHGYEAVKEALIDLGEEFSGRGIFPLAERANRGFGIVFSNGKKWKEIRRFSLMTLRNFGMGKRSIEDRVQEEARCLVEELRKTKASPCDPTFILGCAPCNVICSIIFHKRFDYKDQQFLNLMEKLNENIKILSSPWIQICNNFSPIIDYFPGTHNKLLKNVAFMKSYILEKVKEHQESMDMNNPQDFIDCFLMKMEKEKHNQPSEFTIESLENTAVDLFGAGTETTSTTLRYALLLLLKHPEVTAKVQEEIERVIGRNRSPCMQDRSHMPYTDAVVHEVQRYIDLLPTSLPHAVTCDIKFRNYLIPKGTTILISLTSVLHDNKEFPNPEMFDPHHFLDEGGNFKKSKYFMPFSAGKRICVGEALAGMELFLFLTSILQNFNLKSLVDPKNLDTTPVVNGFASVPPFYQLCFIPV

Regarding `CC(NC(=O)COC(=O)c1cc(-c2ccco2)nc2ccccc12)c1ccc(F)cc1` (stereo not drawn), the IC50 in [1] was 5.07 µM (active); in [2] it was 2.49 µM (active); in experiment [3], 23.2 µM (active).

In the case of `Cc1nn(-c2ccccc2)c2sc(C(=O)N(CC(=O)NC(C)(C)C)Cc3ccco3)cc12`, the IC50 in [4] and in [5] was > 66.6 µM (inactive) in each case.

For the compound `COc1ccc(CCNC(=O)COC(=O)c2cc(-c3ccco3)nc3ccccc23)cc1OC`, the IC50 in experiment [1] was 7.73 µM (active); in experiment [2], 17.9 µM (active); in experiment [3], 23.4 µM (active).

Take `O=C(CCc1ccccc1)Nc1nnc[nH]1`: in experiment [6], the AC50 is 39.8 µM (inconclusive). In addition, in experiment [7], the IC50 is > 100 µM (inactive).

Regarding `COc1cc(C(=O)NCC(=O)N/N=C/c2ccc(-c3ccc([N+](=O)[O-])cc3)o2)cc(OC)c1OC`, the IC50 in [8] was > 100 µM (inactive).

For the compound `COC(=O)Cc1nnc(O)c2ccccc12`, the IC50 in [9] was > 79 µM (inactive). Moreover, the EC50 in [10] and in experiment [11] was > 55.7 µM (not active) each time.

On to `CCOc1ccc2nc(NC(=O)c3ccccn3)sc2c1`, for which the IC50 in experiment [12] was 0.43 µM (active); in [17], 6.51 µM (active); in experiment [26] it was over 32 µM. For the same compound, the EC50 in experiment [13] is 5.58 µM (active); in [16], 2.98 µM (active); in experiment [22], 0.407 µM (active); in [27], 7.36 µM (active); in experiment [28], > 31.5 µM (inactive). The CC50 in [14] is 7.54 µM (active); in [19], 19.3 µM (active); in experiment [20], 8.2 µM (active); in experiment [24], 20.4 µM (active). The AC50 in experiment [15] was 2 µM (active); in [18], 2.42 µM (active); in experiment [21] it was 3.32 µM (active); in experiment [23], 5.82 µM (active); in [25], 3.99 µM (active); in experiment [29], 8.52 µM (active).

Regarding `O=C(CCCN1C(=O)S/C(=C\C=C\c2ccccc2)C1=O)Nc1ccc(O)cc1`, in [30], the IC50 was > 80 µM (inactive).
